The supplement of paper PMC10307832

Legend:
Experiment in all cases: relative viability (nuclei count vs DMSO), 5 days (fraction); higher = more cells survive
[1] = compound: C[C@@]1(C(=O)Nc2ccc(F)nc2)CCCN1c1nc(Nc2cc(C3CC3)n[nH]2)c2cccn2n1 + COc1cc2c(Oc3ccc(NC(=O)C4(C(=O)Nc5ccc(F)cc5)CC4)cc3F)ccnc2cc1OCCCN1CCOCC1 [Foretinib] (partner 0.25 µM)
Summary of the method: (§1)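 Relative viability divides the nuclei count in treated wells by that in vehicle wells. Lung cancer cell lines were seeded in 1536-well plates, dosed by pin tool the next day, and fixed and stained after 5 days in one step with final 0.05% Triton X-100, 1% formaldehyde and 1 ug/ml Hoechst. Dosing was a single drug or a fixed anchor-drug dose plus five library-drug doses (not always all listed) in √10 steps, and values are medians of duplicate plates imaged at 4×.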

[2] = compound: C[C@@]1(C(=O)Nc2ccc(F)nc2)CCCN1c1nc(Nc2cc(C3CC3)n[nH]2)c2cccn2n1 + N=C(N)NC(=N)NCCc1ccccc1 [Phenformin] (partner 250 µM)
Summary of the method: as §1

Motesanib + Dasatinib = compound: CC1(C)CNc2cc(NC(=O)c3cccnc3NCc3ccncc3)ccc21 [Motesanib] + Cc1nc(Nc2ncc(C(=O)Nc3c(C)cccc3Cl)s2)cc(N2CCN(CCO)CC2)n1 [Dasatinib] (partner 0.075 µM)
Summary of the method: as §1

Motesanib + Alpelisib = compound: CC1(C)CNc2cc(NC(=O)c3cccnc3NCc3ccncc3)ccc21 [Motesanib] + Cc1nc(NC(=O)N2CCC[C@H]2C(N)=O)sc1-c1ccnc(C(C)(C)C(F)(F)F)c1 [Alpelisib] (partner 2 µM)
Summary of the method: as §1

SK-MES-1
relative viability ([1]; first compound 0.04 µM): 0.9
relative viability ([1]; first compound 0.1265 µM): 0.853
relative viability ([1]; first compound 0.4 µM): 0.542
relative viability ([1]; first compound 1.265 µM): 0.948
relative viability ([2]; first compound 0.04 µM): 0.699
relative viability ([2]; first compound 0.1265 µM): 0.632
relative viability ([2]; first compound 0.4 µM): 0.559
relative viability ([2]; first compound 1.265 µM): 0.635
relative viability (Motesanib + Dasatinib; first compound 0.01 µM): 0.397
relative viability (Motesanib + Dasatinib; first compound 0.03162 µM): 0.424
relative viability (Motesanib + Dasatinib; first compound 0.1 µM): 0.373
relative viability (Motesanib + Dasatinib; first compound 0.3162 µM): 0.412
relative viability (Motesanib + Dasatinib; first compound 1 µM): 0.378
relative viability (Motesanib + Alpelisib; first compound 0.01 µM): 1.04
relative viability (Motesanib + Alpelisib; first compound 0.03162 µM): 0.948
relative viability (Motesanib + Alpelisib; first compound 0.1 µM): 0.961
relative viability (Motesanib + Alpelisib; first compound 0.3162 µM): 0.927
relative viability (Motesanib + Alpelisib; first compound 1 µM): 0.995

SW 1573
relative viability ([1]; first compound 0.04 µM): 0.744
relative viability ([1]; first compound 0.1265 µM): 0.826
relative viability ([1]; first compound 0.4 µM): 0.494
relative viability ([1]; first compound 1.265 µM): 0.659
relative viability ([2]; first compound 0.04 µM): 0.232
relative viability ([2]; first compound 0.1265 µM): 0.218
relative viability ([2]; first compound 0.4 µM): 0.228
relative viability ([2]; first compound 1.265 µM): 0.214
relative viability (Motesanib + Dasatinib; first compound 0.01 µM): 0.53
relative viability (Motesanib + Dasatinib; first compound 0.03162 µM): 0.447
relative viability (Motesanib + Dasatinib; first compound 0.1 µM): 0.593
relative viability (Motesanib + Dasatinib; first compound 0.3162 µM): 0.552
relative viability (Motesanib + Dasatinib; first compound 1 µM): 0.673
relative viability (Motesanib + Alpelisib; first compound 0.01 µM): 0.825
relative viability (Motesanib + Alpelisib; first compound 0.03162 µM): 0.759
relative viability (Motesanib + Alpelisib; first compound 0.1 µM): 0.75
relative viability (Motesanib + Alpelisib; first compound 0.3162 µM): 0.67
relative viability (Motesanib + Alpelisib; first compound 1 µM): 0.821
